Measured values as given in PMC5155426, “Organic Redox Species in Aqueous Flow Batteries: Redox Potentials, Chemical Stability and Solubility” (Scientific Reports, 2016).
≈ marks a conversion by molar mass, not a printed value. Where “and” joins values, the source holds several entries; their conditions need not be identical. Equal entries are not always repeated. Entries after “also recorded” stand apart in the source; their conditions may differ. Where two headings read alike, the source gives them in different places.

How the values were obtained:
[1] = cited from earlier work; for chemical stability (in water): ref 29 (tetracyano benzoquinone), 30 (dicyano dichloro benzoquinone), 31 (tetracarboxyl para benzoquinone), 32 (duroquinone)
[2] = Cyclic voltammetry: formal redox potential, peak current ratio, electrochemical reversibility; assay type: physicochemical
Description: The investigated compounds were used as-purchased and without any purification. […] For each series of CVs, a freshly polished electrode was used. The CVs for soluble compounds in 1 mM concentration were recorded in a glass beaker with a customized lid in nitrogen purged solutions of three different pHs, namely pH 0 (1 M H2SO4), pH 7 (0.5 M phosphate buffer) and pH 13 (1 M NaOH). The pH of the NaOH solution is taken as 13 to account for carbonization of the solution with exposure to air. A background CV was recorded before each CV experiment to exclude background contaminations. The CVs of insoluble compounds in 1 M H2SO4, or 0.5 M phosphate buffer were recorded as follows: 6 mL of the supporting electrolyte was mixed with approximately 4 mL of acetone, and then a small amount of the quinone was added so that its concentration was around 1 mM.
Each CV was analyzed in terms of peak potentials and peak currents. Peak currents were determined by subtracting a polynomial fit of the background from the recorded current as exemplified in Supplementary, S1. A plot of the absolute values of the peak currents to the square root of the scan rate was constructed and, when reasonable, a linear fit included to evaluate the electrochemical (Nernstian) reversibility of the electrochemical reaction. The peak current Ip for reversible reactions are given by equation (1).
Where F is the Faraday constant, R the gas constant, T the temperature, n the number of electron transferred, A the area of the electrode, DOthe diffusion coefficient and CO^*the bulk concentration of the analyte and v the scan rate. The peak current ratio is expected to be close to one for reversible species. The formal redox potential (E^0’), which is the adjusted form of the standard redox potential, where effects of the medium is taken into account, is reported here as the midpoint potential between the two peak potentials in the CV[24]. All half-cell potentials in this work refer to the normal hydrogen electrode (VNHE).

[3] = Aqueous solubility estimation (OECD test #105) in 1 M supporting electrolytes; settings: for solubility compared with AQDS(2,7) and AQS(2): sulfonated AQs
Description: After each addition the test tube was ultrasonicated and/or shaken vigorously using a Vortex Generator for at least 10 minutes at room temperature. Then the tube was inspected visually for undissolved sample and the addition of supporting electrolyte solution continued until the sample seemed just dissolved. The volumes just before and after full dissolution are used for calculating the solubility interval (Supplementary, S4 and S5) and the solubility is estimated as the average between the two.

[4] = Visual inspection of dissolved samples on standing (thixotropy, phase separation); assay type: physicochemical
Description: Dissolved samples were left to stand for 12 hours and visually inspected for thixotropy using a vortex generator. For very insoluble compounds the amount of sample was decreased to 0.01 g and the dissolution time increased up to 24 h.
In practical RFBs thixotropy is not wanted, as the redox solutions can be kept still for long times. […] Thixotropy of AQ dyes in aqueous dispersions has been described earlier, as well as some methods to overcome the problem such as addition of polyvinylpyrrolidone to the solution[43].

[5] = pKa of the central (hydro)quinone groups estimated from the Pourbaix diagram; assay type: physicochemical; settings: aqueous media, estimated from slope change in Pourbaix diagram, Fig. 5
Description: Quinones generally undergo a reversible two-electron reduction/oxidation. The redox potential is strongly pH dependent, as the reaction may or may not involve two protons as illustrated in the scheme-of-squares mechanistic pathway in Fig. 3 [26]. At pH < pKa1, the reaction includes two protons and thus E^0’ decreases with 59 mV per pH unit (at 25 °C)[24]. At pKa1 < pH < pKa2 and pKa2 < pH only one and no protons are involved, whereby E^0’ decreases with 30 and 0 mV per pH unit, respectively. Generally, the reactions that include protons are slower and result in a lower electrochemical rate constant (k0) and may ultimately lead to higher charge-transfer resistance in the RFB. Thus, the choice of pH in the RFB environment strongly influences quinone electrochemical performance.
Similarly to sulfonated AQs, the positions of the hydroxyl groups affect E^0’, but in acidic only to a small extent. […] The three former all have the hydroxyl groups on positions close to the quinone groups. The difference in E^0’ for these hydroxylated AQs and others may be found in the pKa values of the central (hydro)quinone groups. Those are not trivial to measure given the insolubility at lower pH values for hydroxylated AQs, but they can be estimated from the Pourbaix diagram in Fig. 5 [24][26]. For instance, in the Pourbaix diagram of AQDS(2,7), E^0’ follows the expected −59 mv/pH unit from pH 0 to pH 7 (pKa1). Then the first (hydro)quinone group deprotonates, and the slope changes to 30 mV/pH unit until pH 10 (pKa2) and E^0’ becomes pH-independent. […] Thus, if one can predict or measure reasonable values for these pKa values, it should be possible to predict which ones will have a more negative or positive E^0’ at higher pH.

[6] = 1 M H2SO4 supporting electrolyte prepared from MilliQ water, aqueous buffer, thermodynamic from solid, Solubility, 1 M H2SO4, room temperature, interval just after / before full dissolution
[7] = 1 M KCl supporting electrolyte prepared from MilliQ water, saline or isotonic, thermodynamic from solid, Solubility, 1 M KCl, room temperature
[8] = pH 0 (1 M H2SO4), midpoint of CV peak potentials, about 1 mM, acetone added for insoluble compounds
[9] = pH 7 (0.5 M phosphate buffer), midpoint of CV peak potentials
[10] = pH 13 (1 M NaOH), midpoint of CV peak potentials
[11] = 1 M KOH supporting electrolyte prepared from MilliQ water, aqueous buffer, thermodynamic from solid, Solubility, 1 M KOH, room temperature

Compound | Peak current ratio ([2]; pH 0) | Peak current ratio ([2]; pH 7) | Electrochemical reversibility ([2]; pH 13) | Peak current ratio ([2]; pH 13) | solubility [3, 6] [mM] | solubility [3, 7] [mM] | Comment: behaviour of the solution upon standing ([4]; in KOH (1 M)) | formal redox potential E0' [2, 8] | further results
N#CC1=C(C#N)C(=O)C(Cl)=C(Cl)C1=O [dicyano dichloro benzoquinone] |  |  |  |  |  |  |  |  | E0' [1]: 0.9 VNHE; chemical stability (in water) [1]: readily reacts with water
O=C1c2cccc(O)c2C(=O)c2c(O)cc(CO)cc21 [AQDH(1,8)MH, 1,8-dihydroxy-3-(hydroxymethyl)-9,10-anthraquinone] | 0.58(4) | 0.51(4) | Reversible | 1.03(1) | < 10 | < 10 | thixotropy was observed |  | Comment: behaviour of the solution upon standing ([4]; in KOH (1 M), listed as AQDG(1,8)MH): T hixotropic behavior
O=C1c2ccccc2C(=O)c2c1ccc(O)c2O [AQDH(1,2), 1,2-dihydroxy-9,10-anthraquinone] | 0.73(7) | 0.5(1) | Quasireversible | 1.2(1) | < 10 | < 10 | T hixotropic; also recorded: thixotropy was observed | 0.005(4) VNHE | 
N#CC1=C(C#N)C(=O)C(C#N)=C(C#N)C1=O [tetracyano benzoquinone] |  |  |  |  |  |  |  |  | E0' estimated higher than that of dicyano dichloro benzoquinone [1]: 0.3 V; chemical stability (in water) [1]: Chemical instability in water
O=C1c2ccccc2C(=O)c2c1cc(S(=O)(=O)O)c(O)c2O [AQS(2)DH, 3,4-dihydroxy-9,10-anthraquinone-2-sulfonate sodium] | 0.9(1) | 0.85(6) |  | 1.1(1) |  | < 10 | T hixotropic behavior; also recorded: thixotropy was observed |  | Electrochemical reversibility ([2]; pH not specified): Quasie versib le; solubility ([3]; 1 M H2SO4, room temperature, interval just after / before full dissolution): barely soluble
O=C1c2cccc(O)c2C(=O)c2c(O)cccc21 [AQDH(1,8), 1,8-dihydroxy-9,10-anthraquinone] |  |  | Reversible |  |  |  |  |  | pKa ([5]; read-out: pKa1 of the (hydro)quinone groups): ~4; pKa ([5]; read-out: pKa2 of the (hydro)quinone groups): > 13
O=C(O)c1cc(O)c2c(c1)C(=O)c1cccc(O)c1C2=O [AQDH(4,5)CA, 4,5-dihydroxy-9,10-anthraquinone-2-carboxylic acid] | 0.39(6) | 0.69(8) | Reversible | 1.23(7) | < 10 | < 10 | thixotropy was observed | 0.041(9) VNHE | Electrochemical reversibility ([2]; pH 7): Quasireversible; formal redox potential E0' [2, 9]: -0.267(1) VNHE; formal redox potential E0' [2, 10]: around −0.53 VNHE; formal redox potential E0' ([2]; pH 13 (1 M NaOH), midpoint of CV peak potentials, listed as AQDH(4,5)C A): -0.546(2) VNHE; Comment: behaviour of the solution upon standing ([4]; in KOH (1 M), listed as AQDH(4,5)C A): T hixotr opic behavior
O=C1c2ccccc2C(=O)c2cc(S(=O)(=O)O)ccc21 [AQS(2), 9,10-anthraquinone-2-sulfonate sodium] | 1.0(1) | 0.88(1) |  | 1.2(2) |  |  |  | 0.163(3) VNHE and 0.163 VNHE | formal redox potential E0' [2, 10]: -0.334(3) VNHE; Electrochemical reversibility ([2]; pH not specified): Reversible; Comment: behaviour of the solution upon standing ([4]; electrolyte not stated): Phase separation
O=C1c2cccc(S(=O)(=O)[O-])c2C(=O)c2cccc(S(=O)(=O)[O-])c21.[Na+].[Na+] [AQDS(1,5), 9,10-anthraquinone-1,5-disulfonate disodium] | 1.7(1) | 0.49(3) | Reversible | 1.17(4) |  |  |  | −0.03 VNHE | Electrochemical reversibility ([2]; pH 0): Quasireversible; Electrochemical reversibility ([2]; pH 7): Quasireversible; solubility [3, 11]: < 10 mM; solubility compared with AQDS(2,7) and AQS(2) [3]: more than ten times lower solubility; Comment: behaviour of the solution upon standing ([4]; electrolyte not stated): Phase separation
hexahydroxy anthraquinone |  |  |  |  |  |  |  |  | experimentally obtained E0' ([1]; pH 13): about −0.7 VNHE
O=C1c2ccccc2C(=O)c2c(O)ccc(O)c21 [AQDH(1,4), 1,4-dihydroxy-9,10-anthraquinone] | 0.6(1) | 0.4(2) | Reversible | 1.05(3) | < 10 | < 10 | T hixotropic; also recorded: thixotropy was observed |  | 
O=C1c2ccc(S(=O)(=O)O)cc2C(=O)c2ccc(S(=O)(=O)O)cc21 [AQDS(2,6), AQ-2,6-disulfonate] |  |  |  |  |  |  |  |  | E0' ([1]; pH 0): ~0.166 VNHE
O=C(O)C1=C(C(=O)O)C(=O)C(C(=O)O)=C(C(=O)O)C1=O [tetracarboxyl para benzoquinone] |  |  |  |  |  |  |  |  | calculated standard potential [1]: > 1 VNHE; chemical stability (in water) [1]: decomposes after synthesis
O=C1c2cccc(S(=O)(=O)[O-])c2C(=O)c2c1cccc2S(=O)(=O)[O-].[K+].[K+] [AQDS(1,8), 9,10-anthraquinone-1,8-disulfonate dipotassium] | 1.04(7) | 0.4(1) | Reversible | 1.0(3) |  |  |  | 0.03 VNHE | Electrochemical reversibility ([2]; pH 0): Quasireversible; formal redox potential E0' ([2]; pH 0 (1 M H2SO4); midpoint of CV peak potentials; about 1 mM; acetone added for insoluble compounds; 8)): 0.027(4) VNHE; Electrochemical reversibility ([2]; pH 7): Quasireversible; formal redox potential E0' [2, 10]: -0.464(4) VNHE; solubility compared with AQDS(2,7) and AQS(2) [3]: more than ten times lower solubility; Comment: behaviour of the solution upon standing ([4]; electrolyte not stated): Phase separation
CC1=C(C)C(=O)C(C)=C(C)C1=O [duroquinone] |  |  |  |  |  |  |  |  | potential ([1]; aqueous (acidic and neutral) solutions): 0.5 VNHE; chemical stability (in water) [1]: electrochemically reversible and chemically stable
c1cnccn1 [Pyrazine, 1,4-diazine] |  |  |  |  | ~7000 (≈ 561000 µg/mL) | ~7000 (≈ 561000 µg/mL) |  | -0.013(2) VNHE | formal redox potential E0' [2, 9]: Unstable; formal redox potential E0' [2, 10]: Unstable; solubility [3, 11]: ~7000 mM (≈ 561000 µg/mL)
